Here are results for eight molecules from patent US20240382600A1, “BIFUNCTIONAL DEGRADERS COMPRISING A TEAD BINDER” (Novartis AG, priority 2021, published 2024).

For assay [1], the system named is MKN-45/Ubc-luc cells (unspecific inhibition of luciferase expression or activity). Put plainly: Reporter gene assay specificity control (Ubc-Luc), MKN-45. Type of assay: cell-based. The note with it: Homo sapiens; MKN-45/Ubc-luc specificity control, 24 hrs. The method in brief: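 MKN-45 cells stably carrying a ubiquitin C promoter–firefly luciferase construct, treated the day after seeding with eleven 2-fold compound dilutions (0.1% DMSO final) for 24 hrs at 37° C. Luminescence read 5 min after Steady Glo addition; cell-free background subtracted, as a control for nonspecific luciferase inhibition.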

Assay [2] relates to YAP-dependent transcription in SF268-MCAT_Luc_dox-i-shYAPLevy (Clone 13) cells. Put plainly: YAP reporter gene activity assay (MCAT-Luc), SF268. The format is cell-based. The note with it: Homo sapiens, SF-268; SF268 MCAT_Luc, 24 hrs. (In general: A reporter such as luciferase makes a cellular process visible.)
Assay [3] addresses Avi-humanTEAD4^217-434 / Cy5 labeled humanYAP^60-100 (Homo sapiens (Human), UniProt Q15561). The assay is described as follows: In-vitro biochemical TR-FRET assay (TEAD4/YAP). The note with it: 1 h at room temperature. Type of assay: binding.
The test system of assay [4] is MKN-45/Ubc-luc cells. Put plainly: Proliferation assay (resazurin/AlamarBlue), MKN-45. Type of assay: cell-based. The note with it: Homo sapiens; MKN-45, 72 hours. In a few lines:
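MKN-45 cells carrying constitutive Ubc-driven luciferase reporter, treated the day after seeding with eleven 2-fold dilutions (0.1% DMSO) for 72 h at 37 °C. Viability by resazurin, referenced to day-0 plate; GI50 from % growth (100 none, 0 stasis, −100 kill) and residual viability at top concentration.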
(The colour change of resazurin is a common sign of viable cells or microbes.)

Assay [5] relates to YAP-dependent transcription in NCI-H2052 Tet-On shYAP_2371 pLenti6 MCAT_Luc cells. The assay is described as follows: YAP reporter gene activity assay (MCAT-Luc), NCI-H2052. Type of assay: cell-based. The note with it: Homo sapiens, 24 hrs.
The test system of assay [6] is SF268-MCAT_Luc_dox-i-shYAPLevy (Clone 13) cells. Put plainly: Proliferation assay (resazurin/AlamarBlue), SF268. Type of assay: cell-based. The note with it: Homo sapiens, SF-268; SF268, 72 hours.
Assay [7] concerns the target TEAD1-GFP in HEK293A cells (Homo sapiens (Human), UniProt P28347). Put plainly: TEAD1 protein abundance flow cytometry assay in HEK293A. Type of assay: cell-based. The note with it: HEK293A TEAD1-GFP-CHYSEL-mCherry sensor cells, 24 h, GFP signal by flow cytometry. The method in brief: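 HEK293A stably expressing bicistronic TEAD1-GFP-CHYSEL-mCherry treated 24 h at 37° C with 10-point 3-fold series from 10 μM (0.1% DMSO), duplicate. Median GFP of 2,500 single cells by flow cytometry, normalized to parental HEK293A (0%) and DMSO (100%); DC50 from concentration-response curves.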
(A flow cytometer gives signals particle by particle.)

Assay [8] concerns NCI-H2052 Tet-On shYAP_2371 pLenti6 MCAT_Luc cells. The assay is described as follows: Proliferation assay (resazurin/AlamarBlue), NCI-H2052. The format is cell-based. The note with it: Homo sapiens; NCI-H2052, 72 hours.

A word on the IC50: it is the concentration that inhibits the measured activity by half. Read a high IC50 as a need for much substance. The GI50 is the concentration at which growth is held to half of that of the control.

TEAD1-GFP in HEK293A cells, sequence (P28347 whole entry): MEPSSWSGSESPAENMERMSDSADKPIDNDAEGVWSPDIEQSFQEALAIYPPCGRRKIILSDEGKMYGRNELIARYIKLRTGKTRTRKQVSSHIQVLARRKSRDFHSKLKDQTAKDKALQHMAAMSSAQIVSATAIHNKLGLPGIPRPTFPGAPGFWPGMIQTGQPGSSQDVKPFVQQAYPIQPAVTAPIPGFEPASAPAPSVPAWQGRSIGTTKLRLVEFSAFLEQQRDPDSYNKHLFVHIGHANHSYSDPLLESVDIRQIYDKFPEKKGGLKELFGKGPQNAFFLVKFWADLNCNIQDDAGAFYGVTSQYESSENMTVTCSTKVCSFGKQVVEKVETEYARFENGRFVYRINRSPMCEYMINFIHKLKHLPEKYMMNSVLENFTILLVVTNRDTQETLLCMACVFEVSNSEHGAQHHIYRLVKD
Avi-humanTEAD4^217-434 / Cy5 labeled humanYAP^60-100, sequence (Q15561 217-434): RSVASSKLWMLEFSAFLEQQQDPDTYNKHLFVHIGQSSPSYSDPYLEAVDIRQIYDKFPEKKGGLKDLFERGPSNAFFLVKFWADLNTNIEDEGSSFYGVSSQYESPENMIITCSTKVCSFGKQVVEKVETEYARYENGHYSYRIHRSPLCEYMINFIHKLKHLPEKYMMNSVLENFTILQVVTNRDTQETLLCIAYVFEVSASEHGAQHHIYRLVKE

For `COc1ccc(C(N)=O)c(-c2c(Cl)c(F)cc3c2[C@H](C)[C@@](CN[C@H]2CC[C@H](C(=O)N4CCC(CC5CCN(CCn6cccc(CN7CCC(=O)NC7=O)c6=O)CC5)CC4)CC2)(c2ccccc2)O3)c1F` (atropisomer, axis not shown) [Example 15, 2-((2S,3S,4S)-5-chloro-2-((((1r,4S)-4-(4-((1-(2-(3-((2,4-dioxotetrahydropyrimidin-1(2H)-yl)methyl)-2-oxopyridin-1(2H)-yl)ethyl)piperidin-4-yl)methyl)piperidine-1-carbonyl)cyclohexyl)amino)methyl)-6-fluoro-3-methyl-2-phenyl-2,3-dihydrobenzofuran-4-yl)-3-fluoro-4-methoxybenzamide], the IC50 in assay [1] was over 2000 nM; in assay [2] it was 2.6 nM; in assay [3] it was under 1 nM; in assay [5], 17 nM. The GI50 in assay [4] was 1550 nM; in assay [6], 85 nM; in assay [8] it was 31 nM. In assay [7], the DC50 came out at 3 nM.
With `COc1ccc(C(N)=O)c(-c2c(Cl)c(F)cc3c2[C@H](C)[C@@](CN[C@H]2CC[C@H](C(=O)N4CCC(CC5CCN(C(=O)COc6ccc(N7CCC(=O)NC7=O)cc6)CC5)CC4)CC2)(c2ccccc2)O3)c1F` (atropisomer, axis not shown) [Example 25, 2-((2S,3S,4S)-5-chloro-2-((((1r,4S)-4-(4-((1-(2-(4-(2,4-dioxotetrahydropyrimidin-1(2H)-yl)phenoxy)acetyl)piperidin-4-yl)methyl)piperidine-1-carbonyl)cyclohexyl)amino)methyl)-6-fluoro-3-methyl-2-phenyl-2,3-dihydrobenzofuran-4-yl)-3-fluoro-4-methoxybenzamide], the IC50 in assay [1] was over 2000 nM; in assay [2], 0.54 nM; in assay [3] it was 2.4 nM; in assay [5], 3.2 nM. Besides, the GI50 is over 2000 nM in assay [4], 22 nM in assay [6] and 8.5 nM in assay [8]. This molecule yielded a DC50 in assay [7] of 0.5 nM.
On to `COc1ccc(C(N)=O)c(-c2c(Cl)c(F)cc3c2[C@H](C)[C@@](CN[C@H]2CC[C@H](C(=O)N4CCC(CC5CCN(C(=O)COc6ccc(C)c(N7CCC(=O)NC7=O)c6)CC5)CC4)CC2)(c2ccccc2)O3)c1F` (atropisomer, axis not shown) [Example 21, 2-((2S,3S,4S)-5-chloro-2-((((1r,4S)-4-(4-((1-(2-(3-(2,4-dioxotetrahydropyrimidin-1(2H)-yl)-4-methylphenoxy)acetyl)piperidin-4-yl)methyl)piperidine-1-carbonyl)cyclohexyl)amino)methyl)-6-fluoro-3-methyl-2-phenyl-2,3-dihydrobenzofuran-4-yl)-3-fluoro-4-methoxybenzamide], for which the IC50 is over 2000 nM in assay [1], 0.3 nM in assay [2], 1.6 nM in assay [3] and 1.4 nM in assay [5]. Besides, the values for the GI50 in assay [4], in assay [6] and in assay [8] were over 2000 nM, 9.4 nM and 4.3 nM, respectively. This molecule also had a DC50 in assay [7] of 0.3 nM.
For the molecule `COc1ccc(C(N)=O)c(-c2c(Cl)c(F)cc3c2[C@H](C)[C@@](CN[C@H]2CC[C@H](C(=O)NCCCCCCCNC(=O)COc4ccc(C)c(N5CCC(=O)NC5=O)c4)CC2)(c2ccccc2)O3)c1F` (atropisomer, axis not shown) [Example 23, 2-((2S,3S,4S)-5-chloro-2-((((1r,4S)-4-((7-(2-(3-(2,4-dioxotetrahydropyrimidin-1(2H)-yl)-4-methylphenoxy)acetamido)heptyl)carbamoyl)cyclohexyl)amino)methyl)-6-fluoro-3-methyl-2-phenyl-2,3-dihydrobenzofuran-4-yl)-3-fluoro-4-methoxybenzamide], the IC50 is over 2000 nM in assay [1], 1.4 nM in assay [2], under 1 nM in assay [3] and 13 nM in assay [5]. In addition, the results for the GI50 in assay [4], in assay [6] and in assay [8] were over 2000 nM, 74 nM and 35 nM, respectively. The same molecule returned a DC50 in assay [7] of 3 nM.
Regarding `COc1ccc(C(N)=O)c(-c2c(Cl)c(F)cc3c2[C@H](C)[C@@](CN[C@H]2CC[C@H](C(=O)N[C@H]4CC[C@H](NC(=O)COc5cc(-c6scnc6C)ccc5CNC(=O)[C@@H]5C[C@@H](O)CN5C(=O)[C@@H](NC(=O)C5(F)CC5)C(C)(C)C)CC4)CC2)(c2ccccc2)O3)c1F` (atropisomer, axis not shown) [Example 39, (2S,4R)-N-(2-(2-(((1S,4S)-4-((1S,4R)-4-((((2S,3S,4S)-4-(6-carbamoyl-2-fluoro-3-methoxyphenyl)-5-chloro-6-fluoro-3-methyl-2-phenyl-2,3-dihydrobenzofuran-2-yl)methyl)amino)cyclohexane-1-carboxamido)cyclohexyl)amino)-2-oxoethoxy)-4-(4-methylthiazol-5-yl)benzyl)-1-((S)-2-(1-fluorocyclopropane-1-carboxamido)-3,3-dimethylbutanoyl)-4-hydroxypyrrolidine-2-carboxamide], the 50% inhibitory concentration (IC50) in assay [1] is over 2000 nM; in assay [2] it was 1.8 nM; in assay [3], 3 nM; in assay [5] it was 56 nM. Further, the GI50 is over 2000 nM in assay [4], 63 nM in assay [6] and 170 nM in assay [8]. In assay [7], this molecule came in with a DC50 of 9 nM.
As to `COc1ccc(C(=O)N2CCC(OC3CCN(C(=O)[C@H]4CC[C@H](NC[C@]5(c6ccccc6)Oc6cc(F)c(Cl)c(-c7c(C(N)=O)ccc(OC)c7F)c6[C@@H]5C)CC4)CC3)CC2)cc1N1CCC(=O)NC1=O` (atropisomer, axis not shown) [Example 2, 2-((2S,3S,4S)-5-chloro-2-((((1r,4S)-4-(4-((1-(3-(2,4-dioxotetrahydropyrimidin-1(2H)-yl)-4-methoxybenzoyl)piperidin-4-yl)oxy)piperidine-1-carbonyl)cyclohexyl)amino)methyl)-6-fluoro-3-methyl-2-phenyl-2,3-dihydrobenzofuran-4-yl)-3-fluoro-4-methoxybenzamide], the IC50 in assay [1] was over 20000 nM; in assay [2], 0.9 nM; in assay [3] it was 1.4 nM; in assay [5] it was 13 nM. Also, the GI50 in assay [4] was over 20000 nM; in assay [6], 41 nM; in assay [8], 48 nM. The DC50 in assay [7] is 2 nM.
With `COc1ccc(C(N)=O)c(-c2c(Cl)c(F)cc3c2[C@H](C)[C@@](CN[C@H]2CC[C@H](C(=O)NCCCCCc4cccc5c4CN(C4CCC(=O)NC4=O)C5=O)CC2)(c2ccccc2)O3)c1F` (stereo partly drawn) [Example 31, 2-((2S,3S,4S)-5-chloro-2-((((1r,4S)-4-((5-(2-(2,6-dioxopiperidin-3-yl)-1-oxoisoindolin-4-yl)pentyl)carbamoyl)cyclohexyl)amino)methyl)-6-fluoro-3-methyl-2-phenyl-2,3-dihydrobenzofuran-4-yl)-3-fluoro-4-methoxybenzamide], the IC50 in assay [1] is over 20000 nM; in assay [2], 0.28 nM; in assay [3], 1.8 nM; in assay [5], 1.9 nM. In addition, the GI50 in assay [4] was over 20000 nM; in assay [6] it was 19 nM; in assay [8] it was 6.6 nM. This molecule came in with a DC50 in assay [7] of 0.6 nM.
Consider `COc1ccc(C(=O)N2CCN(CC3CCN(C(=O)[C@H]4CC[C@H](NC[C@]5(c6ccccc6)Oc6cc(F)c(Cl)c(-c7c(C(N)=O)ccc(OC)c7F)c6[C@@H]5C)CC4)CC3)CC2)cc1N1CCC(=O)NC1=O` (atropisomer, axis not shown) [Example 6, 2-((2S,3S,4S)-5-chloro-2-((((1r,4S)-4-(4-((4-(3-(2,4-dioxotetrahydropyrimidin-1(2H)-yl)-4-methoxybenzoyl)piperazin-1-yl)methyl)piperidine-1-carbonyl)cyclohexyl)amino)methyl)-6-fluoro-3-methyl-2-phenyl-2,3-dihydrobenzofuran-4-yl)-3-fluoro-4-methoxybenzamide], for which the IC50 in assay [1] was over 20000 nM; in assay [2], 0.5 nM; in assay [3] it was 1.5 nM; in assay [5] it was 16 nM. Moreover, the GI50 in assay [4] is over 20000 nM; in assay [6] it was 39 nM; in assay [8], 61 nM. Moreover, the DC50 in assay [7] was determined as 2 nM.
